# Measured values: ChEMBL document CHEMBL6092150, “Exploration of isatin-based inhibitors of SARS-CoV-2 Nsp15 endoribonuclease” (Eur J Med Chem, 2024)
# Tests used:
# SARS-CoV-2 [1] = test: Antiviral activity against SARS-CoV-2 Omicron BA.7 variant infected in human A549 cells transfected with human ACE2 and TMPRSS2 assessed as fold reduction in viral RNA load at 80 uM incubated for 3 days by qRT-PCR analysis relative to control; type: functional, Severe acute respiratory syndrome coronavirus 2; settings: time 3 day
# SARS-CoV-2 [2] = test: Antiviral activity against SARS-CoV-2 Omicron BA.7 variant infected in human A549 cells transfected with human ACE2 and TMPRSS2 assessed as fold reduction in viral RNA load incubated for 3 days by qRT-PCR analysis; type: functional; settings: Severe acute respiratory syndrome coronavirus 2, Omicron BA.7, A549, 72 h; time 3 day
# SARS-CoV-2 [3] = test: Antiviral activity against SARS-CoV-2 Omicron BA.7 variant infected in human A549 cells transfected with human ACE2 and TMPRSS2 assessed as fold reduction in viral RNA load at 40 uM incubated for 3 days by qRT-PCR analysis relative to control; type: functional, Severe acute respiratory syndrome coronavirus 2; settings: time 3 day
structure (smiles),measurement,setting,value
N#CC(C#N)=C1C(=O)Nc2ccc([N+](=O)[O-])cc21,fold change (FC),SARS-CoV-2 [1],425
same,EC90,SARS-CoV-2 [2],54 µM
N#CC(C#N)=C1C(=O)Nc2c(Br)cc(Br)cc21,fold change (FC),SARS-CoV-2 [1],68000
same,EC90,SARS-CoV-2 [2],39 µM
N#C[C@@]1(c2ccc3c(N)ncnn23)O[C@H](CO)[C@@H](O)[C@H]1O [GS-441524],fold change (FC),SARS-CoV-2 [3],72000
same,EC90,SARS-CoV-2 [2],2 µM
